These results are taken from publication PMC10614203, “Synthesis, Structure–Activity Relationships, Radiofluorination, and Biological Evaluation of [^18F]RM365, a Novel Radioligand for Imaging the Human Cannabinoid Receptor Type 2 (CB2R) in the Brain with PET” (Journal of Medicinal Chemistry, 2023).

One data set deals with T1, hCB2R (Homo sapiens, UniProt P34972).
T1 construct: host or cells: CHO cells, stably transfected
Briefly: Competitive radioligand binding assay, displacement of [3H]WIN55212-2 from homogenates of hCB2R-CHO cells. As to conditions: for Ki: read-out: CB2R Ki; for CB2R binding affinity, in words: hCB2R, discussion of Table 1. Here is the method:
(§1) The binding affinity of the herein described compounds toward the human CB2R was determined by a competitive radioligand binding assay according to the established in-house protocol using cell homogenates obtained from CHO cells stably transfected with hCB2R (hCB2R-CHO).[53],[73] For compounds binding with high affinity to hCB2R, the affinity toward CB1R was determined as well by radioligand displacement studies performed either with homogenates obtained from the mouse brain or hCB1R-CHO cells.
(§2) The binding affinities toward hCB1R and hCB2R were determined according to a previously published protocol.[22] In brief, membrane preparations obtained from CHO cell lines stably transfected with either human CB1R (hCB1R-CHO; obtained from Euroscreen, Gosselies, Belgium) or human CB2R (hCB2R-CHO; obtained from Paul L. Prather, Department of Pharmacology and Toxicology, College of Medicine, University of Arkansas for Medical Sciences, USA) were incubated with [^3H]SR141716A (1,554 GBq/mmol; PerkinElmer Life and Analytical Sciences, Rodgau, Germany; final concentration ∼2 nM) or [^3H]WIN55212-2 (6,438 GBq/mmol; PerkinElmer Life and Analytical Sciences, Rodgau, Germany; final concentration ∼3 nM) and the respective test compounds at different concentrations (final concentration 10^–5–10^–11 M) diluted from DMSO stock solutions (1% DMSO final concentration) in incubation buffer (50 mM TRIS-HCl, pH 7.4, supplemented with 0.1% bovine serum albumin, 5 mM MgCl2, and 1 mM EDTA) at rt for 90 min.
(§3) The nonspecific binding of the respective radioligand was determined by coincubation with CP55,940 (final concentration 10^–5 M). The normalized values of bound activity (% specific binding) were calculated and plotted vs the logarithm of the concentration of the respective test compound. The IC50 values of the resulting inhibition curves were estimated by nonlinear regression analysis (GraphPad Prism 2.01). To calculate the Ki, the equation of Cheng and Prusoff was used. For homologous competition experiments, Ki = KD.[38]
In general terms: Loss of bound radioactivity is the signal in a displacement assay; it reports binding, not function.

The next data set concerns the target T2, hCB1R (Homo sapiens, UniProt P21554).
T2 construct: host or cells: CHO cells, stably transfected
The experiment in a line: Radioligand displacement assay, [3H]SR141716A from homogenates of hCB1R-CHO cells. The format is binding. The procedure:
as §1, §2, §3

A further data set has as its target CB2R. As to conditions: cited from earlier work.
The target of a further data set is T3, hCB2R(D80N) (Homo sapiens, UniProt P34972, D80N).
T3 construct: expressed in transfected cells; host or cells: neurons of the right striatum of male Wistar rats, transduced in vivo with the AAV2/7-CaMKII0.4-intron-hCB2R(D80N) vector
T3 sequence (P34972 whole entry D80N): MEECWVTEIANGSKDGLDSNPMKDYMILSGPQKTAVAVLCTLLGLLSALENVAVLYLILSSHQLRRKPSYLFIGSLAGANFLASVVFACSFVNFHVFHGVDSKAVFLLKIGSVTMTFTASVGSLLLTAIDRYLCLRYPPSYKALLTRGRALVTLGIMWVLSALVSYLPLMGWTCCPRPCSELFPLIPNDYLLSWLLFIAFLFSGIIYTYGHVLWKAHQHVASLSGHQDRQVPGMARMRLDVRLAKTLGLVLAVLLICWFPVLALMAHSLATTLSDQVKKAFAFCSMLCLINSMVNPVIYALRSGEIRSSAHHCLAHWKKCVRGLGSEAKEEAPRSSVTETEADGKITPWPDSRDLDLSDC
Also noted: method as in earlier work. The note with it: same animal model, previously evaluated; ref 83 ([18F]LU14), 31 ([18F]LU13); cited from earlier work.

[1] abbreviates: hCB2R-CHO homogenates, displacement of [3H]WIN55.2212-2.
The mark [2] stands for this setting: hCB1R-CHO homogenates, displacement of [3H]SR141716A, read-out: CB1R Ki.
The mark [3] stands for this setting: enantiomer obtained by chiral HPLC separation (Scheme 1), hCB2R-CHO, [3H]WIN55.2212-2.
Setting [4] is: Figure 1, ref 28 (DM102), 29, 30 (RoSMA-18-d6), 31 (LU13), 33 (LUZ5-d8).
The mark [5] stands for this setting: Figure 1, ref 28 (DM102), 29, 30 (RoSMA-18-d6), 31 (LU13), 33 (LUZ5-d8), read-out: KiCB2R.

Several values for one entry are separate records, joined by “and”; a condition that tells them apart may be missing. Identical values can stand only once. Entries after “also recorded” stand apart in the source; their conditions may differ. Like-named read-outs stand apart in the source and are kept apart here.

T1 sequence (P34972 whole entry): as the sequence (P34972 whole entry D80N) above, with N80D counted along it
T2 sequence (P21554 whole entry): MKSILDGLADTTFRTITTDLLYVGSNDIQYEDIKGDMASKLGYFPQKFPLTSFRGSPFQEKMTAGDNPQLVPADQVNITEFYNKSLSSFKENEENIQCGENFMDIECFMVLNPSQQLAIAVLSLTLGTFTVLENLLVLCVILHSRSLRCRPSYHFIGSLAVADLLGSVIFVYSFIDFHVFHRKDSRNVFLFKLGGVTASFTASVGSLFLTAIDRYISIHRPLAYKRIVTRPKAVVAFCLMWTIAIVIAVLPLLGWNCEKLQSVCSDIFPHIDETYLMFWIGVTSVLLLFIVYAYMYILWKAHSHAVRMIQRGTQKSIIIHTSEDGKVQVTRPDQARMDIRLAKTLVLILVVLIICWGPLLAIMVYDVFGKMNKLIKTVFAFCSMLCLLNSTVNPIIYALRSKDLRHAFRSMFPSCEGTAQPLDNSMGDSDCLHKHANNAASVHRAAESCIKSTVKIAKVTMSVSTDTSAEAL

In the case of `CC1(C)Cc2ccc(C#N)cc2C1NC(=O)c1cc2cc(F)ccc2[nH]1` (racemic) [Compound (±)-6, (rac)-N-(6-Cyano-2,2-dimethyl-2,3-dihydro-1H-inden-1-yl)-5-fluoro-1H-indole-2-carboxamide], the Ki stood at 3 nM at hCB2R (setting [1]) and 842 nM on hCB1R (setting [2]).
On the same counts, the results for `CC1(C)Cc2ccc(C#N)cc2[C@@H]1NC(=O)c1cc2c(F)cccc2[nH]1` [Compound 19A, (R)-N-(6-Cyano-2,2-dimethyl-2,3-dihydro-1H-inden-1-yl)-4-fluoro-1H-indole-2-carboxamide] are 3.41 nM and greater than 1000 nM.
With `CC1(C)Cc2ccc(C#N)cc2[C@@H]1NC(=O)c1cc2ccc(F)cc2[nH]1` [Compound 19B, (R)-N-(6-Cyano-2,2-dimethyl-2,3-dihydro-1H-inden-1-yl)-6-fluoro-1H-indole-2-carboxamide], the Ki is 15.9 nM on hCB2R (setting [1]) and greater than 1000 nM at hCB1R (setting [2]).
`CC1(C)Cc2ccc(C#N)cc2[C@@H]1NC(=O)c1cc2cc(OCCF)ccc2[nH]1` [Compound 19D, (R)-N-(6-Cyano-2,2-dimethyl-2,3-dihydro-1H-inden-1-yl)-5-(2-fluoroethoxy)-1H-indole-2-carboxamide]: the “CB2R binding affinity, in words” value on hCB2R was “slightly decreased the affinity”. Further, the results for the Ki at hCB2R (setting [1]) and on hCB1R (setting [2]) were 29.9 ± 3.39 nM and greater than 1000 nM, respectively.
Consider `CC1(C)Cc2ccc(C#N)cc2[C@@H]1NC(=O)c1cc2cc(OCCCF)ccc2[nH]1` [Compound 19E, (R)-N-(6-Cyano-2,2-dimethyl-2,3-dihydro-1H-inden-1-yl)-5-(3-fluoropropoxy)-1H-indole-2-carboxamide], for which, on hCB2R, the “CB2R binding affinity, in words” value is recorded as “slightly decreased the affinity”. Moreover, the Ki on hCB2R (setting [1]) was 15.6 ± 3.85 nM; on hCB1R (setting [2]) it was greater than 100 nM; at hCB1R (supplement, formula strings sheet, read-out: CB1RKi) it was greater than 1000 nM.
`Cc1c(C(=O)N[C@H]2c3cc(C#N)ccc3CC2(C)C)[nH]c2ccc(F)cc12` [Compound 19F, (R)-N-(6-Cyano-2,2-dimethyl-2,3-dihydro-1H-inden-1-yl)-5-fluoro-3-methyl-1H-indole-2-carboxamide]: on hCB2R, the “CB2R binding affinity, in words” value is on record as “deleterious effect on the binding affinity”. The Ki on hCB2R (setting [1]) was 336 nM; at hCB1R (setting [2]), greater than 100 nM.
For `CC1(C)Cc2ccc(C#N)cc2[C@@H]1NC(=O)c1nc2cc(F)ccc2[nH]1` [Compound 19G, (R)-N-(6-Cyano-2,2-dimethyl-2,3-dihydro-1H-inden-1-yl)-5-fluoro-1H-benzo[d]imidazole-2-carboxamide], at hCB2R, the “CB2R binding affinity, in words” value is listed as “high CB2R affinity”. Also, the results for the Ki at hCB2R (setting [1]) and on hCB1R (setting [2]) were 7.18 nM and greater than 100 nM, respectively.
On the same counts, the results for `CC1(C)Cc2ccc(C#N)cc2[C@@H]1NC(=O)c1cc2cc(F)ccc2s1` [Compound 19H, (R)-N-(6-Cyano-2,2-dimethyl-2,3-dihydro-1H-inden-1-yl)-5-fluorobenzo[b]thiophene-2-carboxamide] are “high CB2R affinity”, 6.98 ± 3.43 nM and greater than 100 nM.
Taken in the same sequence, the figures for `CC1(C)Cc2ccc(OCCF)cc2[C@@H]1NC(=O)c1cc2cc(F)ccc2[nH]1` [Compound 21A, (R)-5-Fluoro-N-(6-(2-fluoroethoxy)-2,2-dimethyl-2,3-dihydro-1H-inden-1-yl)-1H-indole-2-carboxamide] were “slightly reduced affinity”, 50 nM and greater than 100 nM.
With `CC1(C)Cc2ccc(OCCCF)cc2[C@@H]1NC(=O)c1cc2cc(F)ccc2[nH]1` [Compound 21B, (R)-5-Fluoro-N-(6-(3-fluoropropoxy)-2,2-dimethyl-2,3-dihydro-1H-inden-1-yl)-1H-indole-2-carboxamide], the “CB2R binding affinity, in words” value on hCB2R was “slightly reduced affinity”. The Ki was 78.1 nM on hCB2R (setting [1]) and greater than 1000 nM on hCB1R (setting [2]).
As to `CC1(C)Cc2ccc(C(N)=O)cc2[C@@H]1NC(=O)c1cc2cc(F)ccc2[nH]1` [Compound 21C, (R)-N-(6-Carbamoyl-2,2-dimethyl-2,3-dihydro-1H-inden-1-yl)-5-fluoro-1H-indole-2-carboxamide], the Ki on hCB2R (setting [1]) and on hCB1R (setting [2]) was greater than 1000 nM each time.
`CC12CCC(C1)C(C)(C)C2NC(=O)c1cc2cc(F)ccc2[nH]1` (stereo not shown) [Compound 21D]: the “CB2R binding affinity, in words” value at hCB2R is on record as “loss of CB2R binding”. In addition, the Ki at hCB2R (setting [1]) and at hCB1R (setting [2]) was greater than 1000 nM each time.
In the case of `O=C(NC12CC3CC(CC(C3)C1)C2)c1cc2cc(F)ccc2[nH]1` [Compound 21E, N-(Adamantan-1-yl)-5-fluoro-1H-indole-2-carboxamide], the “CB2R binding affinity, in words” value at hCB2R is on record as “loss of CB2R binding”. Also, the Ki at hCB2R (setting [1]) and on hCB1R (setting [2]) was greater than 1000 nM throughout.
Take `CC1(C)Cc2ccc(C#N)cc2C1NC(=O)c1cc2cc(F)ccc2[nH]1` (stereo not drawn) [Compound (+)-6]: the Ki on hCB2R (setting [3]) and at hCB1R (setting [2]) was greater than 1000 nM throughout. In addition, at hCB2R, the “CB2R binding affinity, in words” value is “inactive; also recorded: no binding”.
Take `CC1(C)Cc2ccc(C#N)cc2[C@@H]1NC(=O)c1cc2cc(F)ccc2[nH]1` [Compound (–)-6, (R)-N-(6-Cyano-2,2-dimethyl-2,3-dihydro-1H-inden-1-yl)-5-fluoro-1H-indole-2-carboxamide]: the Ki at CB2R (reported value, read-out: CB2R Ki) was 0.24 nM; on hCB2R (compound obtained by enantioselective synthesis (Scheme 2), hCB2R-CHO, [3H]WIN55.2212-2), 3.53 nM; on hCB2R (setting [3]), 2.1 nM and 2.19 nM; at hCB1R (compound obtained by enantioselective synthesis (Scheme 2), hCB1R-CHO, [3H]SR141716A, read-out: CB1R Ki) it was 965 nM; at hCB1R (enantiomer obtained by chiral HPLC separation (Scheme 1), hCB1R-CHO, [3H]SR141716A, read-out: CB1R Ki), 827 nM. For the same molecule, the “selectivity over CB1R (factor)” value on hCB2R (CB2R over CB1R) was greater than 300. Further, on hCB2R, the “CB2R binding affinity, in words” value is given as “binding affinity in the same range”.
Consider `CC1(C)C(C(=O)c2cn(CCC[18F])c3ccccc23)C1(C)C` [[^18F]DM102], for which the KiCB1R/KiCB2R with CB2R (setting [4]) was 440. Besides, the Ki at CB2R (setting [5]) was 7.8 nM.
`[2H]C([2H])([18F])C([2H])([2H])C([2H])([2H])C([2H])([2H])n1c(=O)c(C(=O)NC23CC4CC(CC(C4)C2)C3)cc2cccnc21` [[^18F]LU13]: the KiCB1R/KiCB2R with CB2R (setting [4]) is listed as greater than 1000. Moreover, on CB2R (setting [5]), the Ki was 0.6 nM. The “TAC peak SUV in target region” value on hCB2R(D80N) is recorded as 3.6.
Regarding `[2H]C([2H])([18F])C([2H])([2H])C([2H])([2H])OC(=O)C(CC)(CC)NC(=O)c1ccc(N2CC(OC)C2)c(OC[C@H]2C[C@@H]2CO)n1` [[^18F]RoSMA-18-d6], the KiCB1R/KiCB2R with CB2R (setting [4]) is listed as greater than 10000. For the same molecule, the Ki on CB2R (setting [5]) was 0.8 nM.
For “(R)-N-(6-Cyano-2,2-dimethyl-2,3-dihydro-1H-inden-1-yl)-6-fluoro-1H-indole-2-carboxamide [Compound 19C]”, the values for the Ki at hCB2R (setting [1]) and at hCB1R (setting [2]) were 6.49 nM and greater than 1000 nM, respectively.
